# Test results: publication PMC10178848, “Modulating fast skeletal muscle contraction protects skeletal muscle in animal models of Duchenne muscular dystrophy” (The Journal of Clinical Investigation, 2023)
# Like-named read-outs stand apart in the source and are kept apart here.
# System: GRMD plasma proteins
# Assay type: in vivo, dog
# [1] = Post-Treatment to GRMD baseline, Increased in GRMD
smiles,measurement,setting,value
O=c1ccc(-c2cnc(OCC(F)(F)F)nc2)nn1Cc1cncc(F)c1 [EDG-5506],Change from GRMD Baseline (fraction): Tyrosine-protein phosphatase non-receptor type 11 (PTPN11),[1],-0.1671 fraction
same,Change from GRMD Baseline (fraction): UMP-CMP kinase (CMPK1),[1],0.3595 fraction
same,Change from GRMD Baseline (fraction): Ubiquitin carboxyl-terminal hydrolase 25 (USP25),[1],0.0097 fraction
same,Change from GRMD Baseline (fraction): Ubiquitin carboxyl-terminal hydrolase isozyme L1 (UCHL1),[1],0.0043 fraction
same,Change from GRMD Baseline (fraction): Ubiquitin-fold modifier 1 (UFM1),[1],-0.1676 fraction
same,Change from GRMD Baseline (fraction): Vascular cell adhesion protein 1 (VCAM1),[1],-0.0398 fraction
same,Change from GRMD Baseline (fraction): Vitamin K-dependent protein C (PROC),[1],0.0209 fraction
same,Change from GRMD Baseline (fraction): Vitronectin (VTN),[1],-0.1254 fraction
same,Change from GRMD Baseline (fraction): cAMP-dependent protein kinase catalytic subunit alpha (PRKACA),[1],-0.3909 fraction
same,Change from GRMD Baseline (fraction): dCTP pyrophosphatase 1 (DCTPP1),[1],-0.286 fraction
same,Chitotriosidase-1 (CHIT1): Change from GRMD Baseline (fraction),[1],0.0322 fraction
same,Chorionic somatomammotropin hormone (CSH1 CSH2): Change from GRMD Baseline (fraction),[1],-0.0339 fraction
same,Chromobox protein homolog 5 (CBX5): Change from GRMD Baseline (fraction),[1],0.2228 fraction
same,Coagulation Factor X (F10): Change from GRMD Baseline (fraction),[1],0.1794 fraction
same,Coagulation factor IX (F9): Change from GRMD Baseline (fraction),[1],0.0608 fraction
same,"Complement component 1 Q subcomponent-binding protein, mitochondrial (C1QBP): Change from GRMD Baseline (fraction)",[1],0.0901 fraction
same,Connective tissue growth factor (CTGF): Change from GRMD Baseline (fraction),[1],-0.0093 fraction
same,Cyclin-dependent kinase 1:G2/mitotic-specific cyclin-B1 complex (CDC2 CCNB1): Change from GRMD Baseline (fraction),[1],0.0208 fraction
same,Cyclin-dependent kinase 5:Cyclin-dependent kinase 5 activator 1 complex (CDK5 CDK5R1): Change from GRMD Baseline (fraction),[1],0.0687 fraction
same,Cytokine receptor-like factor 1:Cardiotrophin-like cytokine factor 1 Complex (CRLF1 CLCF1): Change from GRMD Baseline (fraction),[1],0.0138 fraction
same,"Dual 3',5'-cyclic-AMP and -GMP phosphodiesterase 11A (PDE11A): Change from GRMD Baseline (fraction)",[1],0.0321 fraction
same,"Ectodysplasin-A, secreted form (EDA): Change from GRMD Baseline (fraction)",[1],0.0092 fraction
same,Endothelial cell-selective adhesion molecule (ESAM): Change from GRMD Baseline (fraction),[1],-0.0069 fraction
same,Endothelial monocyte-activating polypeptide 2 (AIMP1): Change from GRMD Baseline (fraction),[1],-0.0021 fraction
same,Extracellular superoxide dismutase [Cu-Zn] (SOD3): Change from GRMD Baseline (fraction),[1],0.0677 fraction
same,Ficolin-2 (FCN2): Change from GRMD Baseline (fraction),[1],0.0082 fraction
same,Fms-related tyrosine kinase 3 ligand (FLT3LG): Change from GRMD Baseline (fraction),[1],0.0399 fraction
same,Galactoside 3(4)-L-fucosyltransferase (FUT3): Change from GRMD Baseline (fraction),[1],0.1128 fraction
same,Galectin-10 (CLC): Change from GRMD Baseline (fraction),[1],0.0216 fraction
same,Glial fibrillary acidic protein (GFAP): Change from GRMD Baseline (fraction),[1],-0.0254 fraction
same,Glycylpeptide N-tetradecanoyltransferase 1 (NMT1): Change from GRMD Baseline (fraction),[1],0.0839 fraction
same,Group 10 secretory phospholipase A2 (PLA2G10): Change from GRMD Baseline (fraction),[1],0.0518 fraction
same,Growth hormone receptor (GHR): Change from GRMD Baseline (fraction),[1],0.0479 fraction
same,Growth-regulated alpha protein (CXCL1): Change from GRMD Baseline (fraction),[1],-0.0445 fraction
same,Growth/differentiation factor 15 (GDF15): Change from GRMD Baseline (fraction),[1],-0.0019 fraction
same,Hepatocyte growth factor (HGF): Change from GRMD Baseline (fraction),[1],0.0007 fraction
same,Hepcidin (HAMP): Change from GRMD Baseline (fraction),[1],-0.0103 fraction
same,Immunoglobulin M (IGHM IGJ IGK@ IGL@): Change from GRMD Baseline (fraction),[1],0.0023 fraction
same,Importin subunit alpha-1 (KPNA2): Change from GRMD Baseline (fraction),[1],-0.1696 fraction
same,Induced myeloid leukemia cell differentiation protein Mcl-1 (MCL1): Change from GRMD Baseline (fraction),[1],-0.1236 fraction
same,Inorganic pyrophosphatase (PPA1): Change from GRMD Baseline (fraction),[1],-0.0163 fraction
same,Insulin-like growth factor-binding protein 7 (IGFBP7): Change from GRMD Baseline (fraction),[1],0.064 fraction
same,Integrin alpha-IIb: beta-3 complex (ITGA2B ITGB3): Change from GRMD Baseline (fraction),[1],0.0053 fraction
same,Interleukin-4 (IL4): Change from GRMD Baseline (fraction),[1],-0.0251 fraction
same,Interleukin-6 receptor subunit beta (IL6ST): Change from GRMD Baseline (fraction),[1],0.06 fraction
same,Interleukin-8 (CXCL8): Change from GRMD Baseline (fraction),[1],-0.0291 fraction
same,Interleukin-10 receptor subunit beta (IL10RB): Change from GRMD Baseline (fraction),[1],-0.0324 fraction
same,Interleukin-17 receptor C (IL17RC): Change from GRMD Baseline (fraction),[1],-0.0159 fraction
same,Interleukin-18 receptor accessory protein (IL18RAP): Change from GRMD Baseline (fraction),[1],-0.0292 fraction
same,Interleukin-27 (IL27 EBI3): Change from GRMD Baseline (fraction),[1],-0.0149 fraction
same,Interleukin-36 beta (IL36B): Change from GRMD Baseline (fraction),[1],0.0098 fraction
same,Killer cell immunoglobulin-like receptor 3DS1 (KIR3DS1): Change from GRMD Baseline (fraction),[1],0.1583 fraction
same,Killer cell lectin-like receptor subfamily F member 1 (KLRF1): Change from GRMD Baseline (fraction),[1],0.2014 fraction
same,Lamin-B1 (LMNB1): Change from GRMD Baseline (fraction),[1],-0.0238 fraction
same,Laminin (LAMA1 LAMB1 LAMC1): Change from GRMD Baseline (fraction),[1],0.0548 fraction
same,Low-density lipoprotein receptor-related protein 1B (LRP1B): Change from GRMD Baseline (fraction),[1],-0.0345 fraction
same,Macrophage-stimulating protein receptor (MST1R): Change from GRMD Baseline (fraction),[1],0.0197 fraction
same,Matrilin-3 (MATN3): Change from GRMD Baseline (fraction),[1],-0.0333 fraction
same,Matrilysin (MMP7): Change from GRMD Baseline (fraction),[1],-0.0041 fraction
same,N-terminal pro-BNP (NPPB): Change from GRMD Baseline (fraction),[1],-0.0202 fraction
same,NKG2D ligand 3 (ULBP3): Change from GRMD Baseline (fraction),[1],0.0123 fraction
same,Neural cell adhesion molecule L1-like protein (CHL1): Change from GRMD Baseline (fraction),[1],-0.0412 fraction
same,Neurexophilin-1 (NXPH1): Change from GRMD Baseline (fraction),[1],0.3842 fraction
same,OX-2 membrane glycoprotein (CD200): Change from GRMD Baseline (fraction),[1],0.1164 fraction
same,Persephin (PSPN): Change from GRMD Baseline (fraction),[1],-0.0043 fraction
same,"Phosphatidylinositol 4,5-bisphosphate 3-kinase catalytic subunit gamma isoform (PIK3CG): Change from GRMD Baseline (fraction)",[1],0.0292 fraction
same,Pituitary adenylate cyclase-activating polypeptide 27 (ADCYAP1): Change from GRMD Baseline (fraction),[1],0.0483 fraction
same,Platelet factor 4 (PF4): Change from GRMD Baseline (fraction),[1],0.0577 fraction
same,Platelet glycoprotein VI (GP6): Change from GRMD Baseline (fraction),[1],0.0535 fraction
same,Prolactin (PRL): Change from GRMD Baseline (fraction),[1],-0.0256 fraction
same,Prolactin receptor (PRLR): Change from GRMD Baseline (fraction),[1],0.085 fraction
same,Proteasome subunit alpha type-6 (PSMA6): Change from GRMD Baseline (fraction),[1],0.0724 fraction
same,Protein E7_HPV18 (Human-virus): Change from GRMD Baseline (fraction),[1],0.0128 fraction
same,Proto-oncogene tyrosine-protein kinase receptor Ret (RET): Change from GRMD Baseline (fraction),[1],0.0043 fraction
same,RNA-binding protein 39 (RBM39): Change from GRMD Baseline (fraction),[1],-0.1347 fraction
same,Ras GTPase-activating protein 1 (RASA1): Change from GRMD Baseline (fraction),[1],-0.0705 fraction
same,Ribosome maturation protein SBDS (SBDS): Change from GRMD Baseline (fraction),[1],0.0714 fraction
same,SPARC-related modular calcium-binding protein 1 (SMOC1): Change from GRMD Baseline (fraction),[1],-0.0726 fraction
same,Secreted and transmembrane protein 1 (SECTM1): Change from GRMD Baseline (fraction),[1],-0.1238 fraction
same,Serine/threonine-protein kinase PAK 3 (PAK3): Change from GRMD Baseline (fraction),[1],0.077 fraction
same,Serine/threonine-protein kinase PAK 7 (PAK7): Change from GRMD Baseline (fraction),[1],-0.0176 fraction
same,Serine/threonine-protein kinase pim-1 (PIM1): Change from GRMD Baseline (fraction),[1],0.0551 fraction
same,Serum amyloid A-1 protein (SAA1): Change from GRMD Baseline (fraction),[1],-0.1642 fraction
same,Sialic acid-binding Ig-like lectin 7 (SIGLEC7): Change from GRMD Baseline (fraction),[1],-0.0123 fraction
same,Small ubiquitin-related modifier 3 (SUMO3): Change from GRMD Baseline (fraction),[1],-0.0342 fraction
same,Stromelysin-1 (MMP3): Change from GRMD Baseline (fraction),[1],0.0381 fraction
same,Stromelysin-2 (MMP10): Change from GRMD Baseline (fraction),[1],-0.0469 fraction
same,Synaptosomal-associated protein 25 (SNAP25): Change from GRMD Baseline (fraction),[1],0.0227 fraction
same,T-cell surface glycoprotein CD4 (CD4): Change from GRMD Baseline (fraction),[1],0.004 fraction
same,T-lymphocyte activation antigen CD86 (CD86): Change from GRMD Baseline (fraction),[1],0.0642 fraction
same,TATA-box-binding protein (TBP): Change from GRMD Baseline (fraction),[1],-0.0819 fraction
same,Thyroxine-binding globulin (SERPINA7): Change from GRMD Baseline (fraction),[1],-0.0761 fraction
same,Transcription factor IIIB 90 kDa subunit (BRF1): Change from GRMD Baseline (fraction),[1],0.0702 fraction
same,Tumor necrosis factor ligand superfamily member 18 (TNFSF18): Change from GRMD Baseline (fraction),[1],0.0235 fraction
same,Tumor necrosis factor receptor superfamily member 13B (TNFRSF13B): Change from GRMD Baseline (fraction),[1],-0.0295 fraction
same,Tumor necrosis factor receptor superfamily member 13C (TNFRSF13C): Change from GRMD Baseline (fraction),[1],-0.0266 fraction
same,Tumor-associated calcium signal transducer 2 (TACSTD2): Change from GRMD Baseline (fraction),[1],-0.0008 fraction
same,Ubiquitin-conjugating enzyme E2 G2 (UBE2G2): Change from GRMD Baseline (fraction),[1],-0.0144 fraction
same,WNT1-inducible-signaling pathway protein 1 (WISP1): Change from GRMD Baseline (fraction),[1],0.0281 fraction
same,WNT1-inducible-signaling pathway protein 3 (WISP3): Change from GRMD Baseline (fraction),[1],0.0371 fraction
same,alpha-2-macroglobulin receptor-associated protein (LRPAP1): Change from GRMD Baseline (fraction),[1],-0.0289 fraction
same,"cGMP-dependent 3',5'-cyclic phosphodiesterase (PDE2A): Change from GRMD Baseline (fraction)",[1],0.1206 fraction
same,Change from GRMD Baseline (fraction),"Protein deglycase DJ-1 (PARK7), EDG-5506 treatment to GRMD baseline",0.1853 fraction
same,Change from GRMD Baseline (fraction),"Protein deglycase DJ-1 (PARK7), Post-Treatment to GRMD baseline",-0.0618 fraction
same,Change from GRMD Baseline (fraction),"Proto-oncogene vav (VAV1), EDG-5506 treatment to GRMD baseline",0.0609 fraction
same,Change from GRMD Baseline (fraction),"Proto-oncogene vav (VAV1), Post-Treatment to GRMD baseline",0.2228 fraction
same,Change from GRMD Baseline (fraction),"SH2 domain-containing protein 1A (SH2D1A), EDG-5506 treatment to GRMD baseline",0.0272 fraction
same,Change from GRMD Baseline (fraction),"SH2 domain-containing protein 1A (SH2D1A), Post-Treatment to GRMD baseline",0.0814 fraction
same,Change from GRMD Baseline (fraction),"Serine/threonine-protein kinase TBK1 (TBK1), EDG-5506 treatment to GRMD baseline",0.0144 fraction
same,Change from GRMD Baseline (fraction),"Serine/threonine-protein kinase TBK1 (TBK1), Post-Treatment to GRMD baseline",0.0415 fraction
same,Change from GRMD Baseline (fraction),"Sialic acid-binding Ig-like lectin 14 (SIGLEC14), EDG-5506 treatment to GRMD baseline",0.0643 fraction
same,Change from GRMD Baseline (fraction),"Sialic acid-binding Ig-like lectin 14 (SIGLEC14), Post-Treatment to GRMD baseline",-0.0249 fraction
same,Change from GRMD Baseline (fraction),"Sorting nexin-4 (SNX4), EDG-5506 treatment to GRMD baseline",-0.0709 fraction
same,Change from GRMD Baseline (fraction),"Sorting nexin-4 (SNX4), Post-Treatment to GRMD baseline",0.088 fraction
same,Change from GRMD Baseline (fraction),"Thrombin (F2), EDG-5506 treatment to GRMD baseline",0.2436 fraction
same,Change from GRMD Baseline (fraction),"Thrombin (F2), Post-Treatment to GRMD baseline",0.0387 fraction
same,Change from GRMD Baseline (fraction),"Transgelin-2 (TAGLN2), EDG-5506 treatment to GRMD baseline",0.1205 fraction
same,Change from GRMD Baseline (fraction),"Transgelin-2 (TAGLN2), Post-Treatment to GRMD baseline",-0.0633 fraction
same,Change from GRMD Baseline (fraction),"WAP, kazal, immunoglobulin, kunitz and NTR domain-containing protein 1 (WFIKKN1), EDG-5506 treatment to GRMD baseline",0.1609 fraction
same,Change from GRMD Baseline (fraction),"WAP, kazal, immunoglobulin, kunitz and NTR domain-containing protein 1 (WFIKKN1), Post-Treatment to GRMD baseline",-0.0946 fraction
